Source: patent publication US8562804B2 (priority 2006, dated 2013)
Several values for one entry are separate records, joined by “and”; a condition that tells them apart may be missing. Equal entries are not always repeated. Where two headings read alike, the source gives them in different places.

Tests used:
[1] = assay type: physicochemical

In the case of `O=[N+]([O-])c1ccccc1O` [2NP, 2-nitrophenol], the pKa (physchem) is reported as 6.7, the effective mobility ([1]; pH 6.4) is reported as 12.2(±0.3)·10^−9 m^2/Vs and 13.4(±0.3)·10^−9 m^2/Vs and the effective mobility ([1]; pH 6.8) is reported as 15.8(±0.2)·10^−9 m^2/Vs and 16.3(±0.2)·10^−9 m^2/Vs.
